Measured values reported in paper PMC10311661, “In Silico Discovery of 5′-Modified 7-Deoxy-7-ethynyl-4′-thioadenosine as a HASPIN Inhibitor and Its Synergistic Anticancer Effect with the PLK1 Inhibitor” (ACS Central Science, 2023).

Legend:
Test in all cases: KINOMEscan (scanMAX) competition binding at […], less than […] of control
Conditions in all cases: read-out: % of control at 100 nM
MEK5 = target: T1, MEK5 (Homo sapiens, UniProt Q13163)
T1 construct: gene MAP2K5
T1 sequence (Q13163 1-448): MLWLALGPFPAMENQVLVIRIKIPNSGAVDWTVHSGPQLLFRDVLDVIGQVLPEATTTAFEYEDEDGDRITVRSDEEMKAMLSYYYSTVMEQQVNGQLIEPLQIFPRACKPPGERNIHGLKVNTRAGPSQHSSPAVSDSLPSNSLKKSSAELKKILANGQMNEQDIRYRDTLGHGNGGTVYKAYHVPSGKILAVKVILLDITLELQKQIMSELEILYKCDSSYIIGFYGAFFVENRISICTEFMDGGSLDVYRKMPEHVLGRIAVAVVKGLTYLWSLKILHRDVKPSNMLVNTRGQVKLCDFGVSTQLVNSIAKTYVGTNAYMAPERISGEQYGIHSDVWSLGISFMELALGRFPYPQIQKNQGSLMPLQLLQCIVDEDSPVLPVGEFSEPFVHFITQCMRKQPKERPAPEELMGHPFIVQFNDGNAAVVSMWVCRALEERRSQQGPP

DYRK1A = DYRK1A (Homo sapiens, UniProt Q13627)
CLK2 = CLK2 (Homo sapiens, UniProt P49760)

Measured: remaining binding at 0.1 µM

Chain of CLK2 (P49760 whole entry): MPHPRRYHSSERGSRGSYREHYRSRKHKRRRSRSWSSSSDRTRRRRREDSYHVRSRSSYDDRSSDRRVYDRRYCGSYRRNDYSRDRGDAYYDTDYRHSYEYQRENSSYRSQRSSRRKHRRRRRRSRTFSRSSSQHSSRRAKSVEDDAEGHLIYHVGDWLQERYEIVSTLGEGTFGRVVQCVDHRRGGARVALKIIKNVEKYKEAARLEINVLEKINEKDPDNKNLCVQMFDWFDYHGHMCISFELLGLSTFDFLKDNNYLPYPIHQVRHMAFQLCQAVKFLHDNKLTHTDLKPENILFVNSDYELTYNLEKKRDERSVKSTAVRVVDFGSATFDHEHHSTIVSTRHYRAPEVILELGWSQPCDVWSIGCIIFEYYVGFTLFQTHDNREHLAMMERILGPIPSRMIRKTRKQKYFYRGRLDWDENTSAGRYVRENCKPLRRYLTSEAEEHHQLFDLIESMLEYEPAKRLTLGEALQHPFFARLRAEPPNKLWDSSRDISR

C#Cc1cn([C@@H]2S[C@H](CN=[N+]=[N-])[C@@H](O)[C@H]2O)c2ncnc(N)c12 [compound 7, LJ4827]
< 1%: all assays above
